Data: the NIST ThermoML archive (doi:10.1016/j.jct.2008.12.002)
Numbers after ± are expanded uncertainties.

Assay: xn = mol fraction of the nth substance listed
Conditions: 101 kPa, Liquid, Vibrating tube method

CCCCCCCC[n+]1ccn(C)c1.F[B-](F)(F)F [1-methyl-3-octylimidazolium tetrafluoroborate] + OCCO
mass density [kg/m3]
Conditions	298.15 K	308.15 K	318.15 K
x1 = 0.0027	1109.9 ± 0.4	1102.8 ± 0.4	1095.7 ± 0.3
x1 = 0.0046	1109.7 ± 0.4	1102.7 ± 0.4	1095.4 ± 0.3
x1 = 0.0081	1109.5 ± 0.4	1102.4 ± 0.4	1095.2 ± 0.4
x1 = 0.0151	1109 ± 0.4	1101.9 ± 0.4	1094.6 ± 0.4
x1 = 0.0316	1108 ± 0.4	1100.8 ± 0.4	1093.4 ± 0.4
x1 = 0.0614	1106.4 ± 0.4	1099.2 ± 0.4	1091.7 ± 0.4
x1 = 0.083	1105.4 ± 0.4	1098 ± 0.4	1090.6 ± 0.4
x1 = 0.1341	1103.5 ± 0.4	1096 ± 0.4	1088.6 ± 0.4
x1 = 0.2026	1101.7 ± 0.4	1094 ± 0.4	1086.8 ± 0.4
x1 = 0.273	1100.4 ± 0.5	1092.7 ± 0.5	1085.3 ± 0.5
x1 = 0.4125	1099.2 ± 0.6	1091.5 ± 0.5	1084.2 ± 0.5
x1 = 0.5198	1099 ± 0.6	1091.3 ± 0.6	1084.1 ± 0.6
x1 = 0.6306	1099.3 ± 0.7	1091.6 ± 0.7	1084.5 ± 0.7
x1 = 0.7919	1100.3 ± 0.9	1092.6 ± 0.8	1085.5 ± 0.8
x1 = 0.9583	1101.6 ± 1	1094 ± 1	1087.1 ± 1
x1 = 1	1101.9 ± 1.1	1094.32 ± 1	1087.5 ± 1

CCCCn1cc[n+](C)c1.F[B-](F)(F)F [1-butyl-3-methylimidazolium tetrafluoroborate] + OCCO
mass density [kg/m3]
Conditions	298.15 K	308.15 K	318.15 K
x1 = 0.0266	1116.7 ± 0.4	1109.4 ± 0.4	1102.2 ± 0.4
x1 = 0.0766	1127.3 ± 0.4	1119.9 ± 0.4	1112.5 ± 0.4
x1 = 0.1017	1131.9 ± 0.4	1124.4 ± 0.4	1116.9 ± 0.4
x1 = 0.1678	1142.4 ± 0.4	1134.7 ± 0.4	1126.9 ± 0.4
x1 = 0.2425	1152.1 ± 0.4	1144.1 ± 0.4	1136.2 ± 0.4
x1 = 0.3825	1166 ± 0.4	1157.8 ± 0.4	1149.7 ± 0.4
x1 = 0.4389	1170.5 ± 0.4	1162.4 ± 0.4	1154.3 ± 0.4
x1 = 0.5207	1176.4 ± 0.4	1168.3 ± 0.4	1160.3 ± 0.4
x1 = 0.6049	1181.7 ± 0.4	1173.7 ± 0.4	1165.8 ± 0.4
x1 = 0.7196	1188.1 ± 0.4	1180.4 ± 0.4	1172.7 ± 0.4
x1 = 0.8106	1192.7 ± 0.4	1185.1 ± 0.4	1177.6 ± 0.4
x1 = 0.8978	1196.8 ± 0.4	1189.4 ± 0.4	1182.1 ± 0.4
x1 = 1	1201.2 ± 0.4	1194 ± 0.4	1186.9 ± 0.4
